Results taken from ChEMBL document CHEMBL4219073, “Development of selective inhibitors for the treatment of rheumatoid arthritis: (R)-3-(3-(Methyl(7H-pyrrolo[2,3-d]pyrimidin-4-yl)amino)pyrrolidin-1-yl)-3-oxopropanenitrile as a JAK1-selective inhibitor” (Bioorg Med Chem, 2018).

Assays:
[1] = biological target: Tyrosine-protein kinase JAK1 (Homo sapiens, UniProt P23458)
Description: Inhibition of recombinant human JAK1 (866-end residues) in presence of ATP

[2] = biological target: Tyrosine-protein kinase JAK2 (Homo sapiens, UniProt O60674); type: ADME
Chain of Tyrosine-protein kinase JAK2 (O60674 whole entry): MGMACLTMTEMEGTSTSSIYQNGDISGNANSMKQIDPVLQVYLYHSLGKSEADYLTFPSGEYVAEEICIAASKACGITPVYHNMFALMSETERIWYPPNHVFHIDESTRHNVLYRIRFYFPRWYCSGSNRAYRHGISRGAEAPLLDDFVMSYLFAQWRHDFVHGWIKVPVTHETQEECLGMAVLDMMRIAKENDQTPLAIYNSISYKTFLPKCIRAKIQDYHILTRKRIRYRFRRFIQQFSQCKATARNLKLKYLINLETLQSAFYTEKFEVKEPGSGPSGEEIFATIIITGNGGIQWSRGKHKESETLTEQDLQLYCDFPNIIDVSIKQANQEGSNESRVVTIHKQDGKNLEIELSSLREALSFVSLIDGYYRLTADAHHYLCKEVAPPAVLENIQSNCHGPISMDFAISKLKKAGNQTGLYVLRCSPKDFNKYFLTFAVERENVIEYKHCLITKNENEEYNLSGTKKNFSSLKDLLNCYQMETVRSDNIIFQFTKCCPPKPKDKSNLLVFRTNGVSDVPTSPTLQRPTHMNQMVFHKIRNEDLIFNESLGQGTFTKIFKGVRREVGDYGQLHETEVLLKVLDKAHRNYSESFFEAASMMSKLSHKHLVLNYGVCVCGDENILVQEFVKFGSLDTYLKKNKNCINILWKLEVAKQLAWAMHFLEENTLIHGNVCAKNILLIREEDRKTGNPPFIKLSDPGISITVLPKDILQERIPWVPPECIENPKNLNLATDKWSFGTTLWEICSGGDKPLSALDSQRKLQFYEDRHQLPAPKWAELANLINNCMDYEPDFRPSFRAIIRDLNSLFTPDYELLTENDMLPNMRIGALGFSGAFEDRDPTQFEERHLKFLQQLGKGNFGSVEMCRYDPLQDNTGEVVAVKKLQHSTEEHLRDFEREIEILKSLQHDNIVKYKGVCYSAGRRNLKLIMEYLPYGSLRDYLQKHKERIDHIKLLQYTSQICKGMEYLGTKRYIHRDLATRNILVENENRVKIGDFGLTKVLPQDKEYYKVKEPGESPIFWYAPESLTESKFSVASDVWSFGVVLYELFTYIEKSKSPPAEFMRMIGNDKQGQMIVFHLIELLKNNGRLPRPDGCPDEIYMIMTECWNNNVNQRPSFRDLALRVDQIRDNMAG
Description: Inhibition of recombinant human JAK2 (808-end residues) in presence of ATP

Chain of Tyrosine-protein kinase JAK1 (P23458 whole entry): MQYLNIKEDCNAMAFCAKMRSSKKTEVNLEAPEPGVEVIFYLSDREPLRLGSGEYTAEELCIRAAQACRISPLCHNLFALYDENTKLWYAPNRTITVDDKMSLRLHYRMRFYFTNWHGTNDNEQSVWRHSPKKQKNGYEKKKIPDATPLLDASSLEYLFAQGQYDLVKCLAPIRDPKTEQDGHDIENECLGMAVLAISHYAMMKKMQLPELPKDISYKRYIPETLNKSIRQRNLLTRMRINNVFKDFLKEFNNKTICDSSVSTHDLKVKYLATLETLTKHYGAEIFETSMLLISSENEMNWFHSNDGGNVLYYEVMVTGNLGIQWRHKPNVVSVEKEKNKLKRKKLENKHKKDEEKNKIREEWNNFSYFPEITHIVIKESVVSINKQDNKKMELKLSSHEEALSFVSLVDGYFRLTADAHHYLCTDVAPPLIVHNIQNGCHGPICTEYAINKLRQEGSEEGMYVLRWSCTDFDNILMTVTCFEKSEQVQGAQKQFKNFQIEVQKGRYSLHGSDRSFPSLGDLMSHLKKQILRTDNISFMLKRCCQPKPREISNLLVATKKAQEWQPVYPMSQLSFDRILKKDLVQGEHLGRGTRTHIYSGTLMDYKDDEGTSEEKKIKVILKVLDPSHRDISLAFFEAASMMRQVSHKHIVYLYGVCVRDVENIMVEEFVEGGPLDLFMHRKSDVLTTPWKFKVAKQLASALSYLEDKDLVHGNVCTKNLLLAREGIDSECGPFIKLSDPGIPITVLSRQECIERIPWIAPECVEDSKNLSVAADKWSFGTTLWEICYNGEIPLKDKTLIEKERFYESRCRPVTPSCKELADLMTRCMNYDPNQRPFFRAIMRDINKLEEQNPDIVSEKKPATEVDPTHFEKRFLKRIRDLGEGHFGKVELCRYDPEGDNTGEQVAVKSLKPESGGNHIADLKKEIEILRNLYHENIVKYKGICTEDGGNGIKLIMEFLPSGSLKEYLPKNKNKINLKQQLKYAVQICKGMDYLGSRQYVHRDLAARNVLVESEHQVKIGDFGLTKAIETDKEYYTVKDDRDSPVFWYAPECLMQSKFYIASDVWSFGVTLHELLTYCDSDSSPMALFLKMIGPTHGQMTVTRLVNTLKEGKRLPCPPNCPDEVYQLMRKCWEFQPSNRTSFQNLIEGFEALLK

SMILES | IC50 [1] [nM] | IC50 [2] [nM]
N#Cc1cccc(S(=O)(=O)N2CC[C@@H](Nc3ncnc4[nH]ccc34)C2)c1 | 510 | 1900
CN(c1ncnc2[nH]ccc12)[C@@H]1CCN(S(=O)(=O)c2cn(C)cn2)C1 | 650 | 19000
Cc1cccc(S(=O)(=O)N2CC[C@@H](N(C)c3ncnc4[nH]ccc34)C2)c1 | 29 | 730
CC(C)S(=O)(=O)N1CC[C@@H](N(C)c2ncnc3[nH]ccc23)C1 | 170 | 4800
CCN(c1ncnc2[nH]ccc12)[C@@H]1CCN(S(=O)(=O)c2cccc(C#N)c2)C1 | 19 | 110
N#Cc1cccc(S(=O)(=O)N2CC[C@@H](N(CC3CC3)c3ncnc4[nH]ccc34)C2)c1 | 17 | 1400
CN(c1ncnc2[nH]ccc12)[C@@H]1CCN(S(=O)(=O)C(F)(F)F)C1 | 140 | 4500
CN(c1ncnc2[nH]ccc12)[C@@H]1CCN(S(=O)(=O)c2cccc(F)c2)C1 | 14 | 53
CN(c1ncnc2[nH]ccc12)[C@@H]1CCN(S(=O)(=O)c2ccccc2)C1 | 28 | 430
